Reference: ChEMBL document CHEMBL6182928, “Characterization of Hepatotropic Small Molecule Inhibitors of Hypoxia Inducible Factor Prolyl Hydroxylase in the Prevention of Oxygen-Induced Retinopathy” (J Med Chem, 2025)
Calls of active or inactive are those of the source. No cut-off for these calls is given here.

Experiments:
[1] = target: Hypoxia-inducible factor 1-alpha (Mus musculus) (UniProt Q61221); experiment: Induction of stabilization of HIF-1alpha in mouse NIH-3T3-HIF/Luc cells assessed as activation of HRE by measuring […] at 500 uM incubated for 24 hrs by Bright-glo luciferase assay; assay type: cell-based
[2] = target: Hypoxia-inducible factor 1-alpha (Homo sapiens) (UniProt Q16665); experiment: Induction of stabilization of HIF-1alpha in human Hep3B cells by measuring fold change protein level at 500 uM incubated for 3 hrs by Western blot analysis; assay type: cell-based
[3] = target: Hypoxia-inducible factor 1-alpha (Mus musculus) (UniProt Q61221); experiment: Induction of stabilization of HIF-1alpha in mouse NIH-3T3-HIF/Luc cells assessed as activation of HRE at 1 mM incubated for 24 hrs by Bright-glo luciferase assay; assay type: cell-based
[4] = target: Hypoxia-inducible factor 1-alpha (Homo sapiens) (UniProt Q16665); experiment: Induction of stabilization of HIF-1alpha in human Hep3B cells at 1 mM measured at 3 to 6 hrs by Immunoblot analysis; assay type: cell-based; settings: time 3-6 hrs
[5] = test system: Mus musculus; experiment: (§1) Protection against oxygen-induced hypomyelination in mouse pup assessed as increase in Bnip3 mRNA level in liver administered as ip dose on postnatal day 3, 5, 7 and reared in 80% oxygen exposure on postnatal day 4 to day 8 and measured on postnatal day 11; assay type: functional, organism-based; settings: time 9.0 day
[6] = test system: Mus musculus; experiment: In vivo inhibition of PHD in Luc-ODD mouse model assessed as stabilization of HIF-1alpha in liver at 1 mM, ip single dose on postnatal day 7 measured after 24 hrs by Bright-glo luciferase assay; assay type: functional, organism-based
[7] = target: Hypoxia-inducible factor 1-alpha (Homo sapiens) (UniProt Q16665); experiment: Induction of stabilization of HIF-1alpha in human Hep3B cells measured at 3 hrs by Western blot analysis; assay type: cell-based
[8] = test system: Mus musculus; experiment: In vivo inhibition of PHD in Luc-ODD mouse model assessed as stabilization of HIF-1alpha in kidney at 1 mM, ip single dose on postnatal day 8 measured after 3 hrs by Bright-glo luciferase assay; assay type: functional, organism-based
[9] = test system: Mus musculus; experiment: Protection against oxygen-induced hypomyelination in mouse pup assessed as increase in serpine1 mRNA level in liver administered as ip dose on postnatal day 3, 5, 7 and reared in 80% oxygen exposure on postnatal day 4 to day 8 and measured on postnatal day 11; assay type: functional, organism-based; settings: time 9.0 day
[10] = target: Hypoxia-inducible factor 1-alpha (Mus musculus) (UniProt Q61221); experiment: Induction of stabilization of HIF-1alpha in mouse NIH-3T3-HIF/Luc cells assessed as activation of HRE measured at 24 hrs by Bright-glo luciferase assay; assay type: cell-based
[11] = test system: Mus musculus; experiment: Protection against oxygen-induced retinopathy in mouse pup assessed as glia preservation in total retinal flat mount administered as ip dose on postnatal day 6, 8, 10 and reared in 75% oxygen exposure on postnatal day 7 to day 12 and measured on postnatal day 17 by isolectin/GFAP based staining analysis; assay type: functional, organism-based; settings: time 12.0 day
[12] = test system: Mus musculus; experiment: In vivo inhibition of PHD in Luc-ODD mouse model assessed as stabilization of HIF-1alpha in brain at 1 mM, ip single dose on postnatal day 7 measured at 3 to 24 hrs by Bright-glo luciferase assay; assay type: functional, organism-based; settings: time 3-24 hrs
[13] = test system: Mus musculus; experiment: Effect on myelination in oxygen-induced hypomyelination mouse pup model assessed as effect on HIF-1alpha level in brain administered as ip dose on postnatal day 3, 5, 7 and reared in 80% oxygen exposure on postnatal day 4 to day 8 and measured on postnatal day 11 by Western blot analysis; assay type: functional, organism-based; settings: time 9.0 day
[14] = test system: Mus musculus; experiment: In vivo inhibition of PHD in Luc-ODD mouse model assessed as stabilization of HIF-1alpha in liver at 1 mM, ip single dose on postnatal day 8 measured after 3 hrs by Bright-glo luciferase assay; assay type: functional, organism-based
[15] = test system: Mus musculus; experiment: (§2) Protection against oxygen-induced retinopathy in liver-specific HIF knockout (LHKO) mouse pup assessed as reduction in retinal vaso-obliteration at 1 mmol/Kg, ip administered on postnatal day 6, 8, 10 and reared in 75% oxygen exposure on postnatal day 7 to day 12 and measured on postnatal day 17 by lectin based staining analysis; assay type: functional, organism-based; settings: time 12.0 day
[16] = test system: Mus musculus; experiment: as §1, with “bipolar cell activity by measuring amplitude of ERG b-wave” for “Bnip3 mRNA level in liver”, “11 by electroretinogram analysis” for “11”; assay type: functional, organism-based; settings: time 9.0 day
[17] = target: Hypoxia-inducible factor 1-alpha (Homo sapiens) (UniProt Q16665); experiment: Induction of stabilization of HIF-1alpha in human Hep3B cells at 1 to 4 mM measured at 24 hrs by Immunoblot analysis; assay type: cell-based; settings: dose 1-4 mM
[18] = test system: Mus musculus; experiment: Protection against oxygen-induced hypomyelination in mouse pup assessed as increase in Cox4i2 mRNA level in liver administered as ip dose on postnatal day 3, 5, 7 and reared in 80% oxygen exposure on postnatal day 4 to day 8 and measured on postnatal day 11; assay type: functional, organism-based; settings: time 9.0 day
[19] = test system: Mus musculus; experiment: as §2, with “wild type C57BL/6J” for “liver-specific HIF knockout (LHKO)”, “neovascularization” for “vaso-obliteration”; assay type: functional, organism-based; settings: time 12.0 day
[20] = target: Hypoxia-inducible factor 1-alpha (Homo sapiens) (UniProt Q16665); experiment: Induction of stabilization of HIF-1alpha in human Hep3B cells incubated for 24 hrs by Immunoblot analysis; assay type: cell-based
[21] = test system: Mus musculus; experiment: Effect on myelination in oxygen-induced hypomyelination mouse pup model assessed as effect on myelin basic protein level in brain administered as ip dose on postnatal day 3, 5, 7 and reared in 80% oxygen exposure on postnatal day 4 to day 8 and measured on postnatal day 11 by Western blot analysis; assay type: functional, organism-based; settings: time 9.0 day
[22] = test system: Mus musculus; experiment: as §2, with “wild type C57BL/6J” for “liver-specific HIF knockout (LHKO)”; assay type: functional, organism-based; settings: time 12.0 day
[23] = test system: Mus musculus; experiment: Protection against oxygen-induced retinopathy in mouse pup assessed as astrocyte survival administered as ip dose on postnatal day 6, 8, 10 and reared in 75% oxygen exposure on postnatal day 7 to day 12 and measured on postnatal day 17 by isolectin/GFAP based staining analysis; assay type: functional, organism-based; settings: time 12.0 day
[24] = test system: Mus musculus; experiment: as §2, with “wild type C57BL/6J” for “liver-specific HIF knockout (LHKO)”, “avascular retina” for “retinal vaso-obliteration”; assay type: functional, organism-based; settings: time 12.0 day
[25] = target: Hypoxia-inducible factor 1-alpha (Mus musculus) (UniProt Q61221); experiment: Induction of stabilization of HIF-1alpha in mouse NIH-3T3-HIF/Luc cells assessed as activation of HRE at 1 to 4 mM measured at 48 hrs by Bright-glo luciferase assay; assay type: cell-based; settings: dose 1-4 mM
[26] = test system: Mus musculus; experiment: Protection against oxygen-induced hypomyelination in mouse pup assessed as increase in vegf mRNA level in liver administered as ip dose on postnatal day 3, 5, 7 and reared in 80% oxygen exposure on postnatal day 4 to day 8 and measured on postnatal day 11; assay type: functional, organism-based; settings: time 9.0 day

Chain of Hypoxia-inducible factor 1-alpha (Homo sapiens) (Q16665 whole entry, looked up): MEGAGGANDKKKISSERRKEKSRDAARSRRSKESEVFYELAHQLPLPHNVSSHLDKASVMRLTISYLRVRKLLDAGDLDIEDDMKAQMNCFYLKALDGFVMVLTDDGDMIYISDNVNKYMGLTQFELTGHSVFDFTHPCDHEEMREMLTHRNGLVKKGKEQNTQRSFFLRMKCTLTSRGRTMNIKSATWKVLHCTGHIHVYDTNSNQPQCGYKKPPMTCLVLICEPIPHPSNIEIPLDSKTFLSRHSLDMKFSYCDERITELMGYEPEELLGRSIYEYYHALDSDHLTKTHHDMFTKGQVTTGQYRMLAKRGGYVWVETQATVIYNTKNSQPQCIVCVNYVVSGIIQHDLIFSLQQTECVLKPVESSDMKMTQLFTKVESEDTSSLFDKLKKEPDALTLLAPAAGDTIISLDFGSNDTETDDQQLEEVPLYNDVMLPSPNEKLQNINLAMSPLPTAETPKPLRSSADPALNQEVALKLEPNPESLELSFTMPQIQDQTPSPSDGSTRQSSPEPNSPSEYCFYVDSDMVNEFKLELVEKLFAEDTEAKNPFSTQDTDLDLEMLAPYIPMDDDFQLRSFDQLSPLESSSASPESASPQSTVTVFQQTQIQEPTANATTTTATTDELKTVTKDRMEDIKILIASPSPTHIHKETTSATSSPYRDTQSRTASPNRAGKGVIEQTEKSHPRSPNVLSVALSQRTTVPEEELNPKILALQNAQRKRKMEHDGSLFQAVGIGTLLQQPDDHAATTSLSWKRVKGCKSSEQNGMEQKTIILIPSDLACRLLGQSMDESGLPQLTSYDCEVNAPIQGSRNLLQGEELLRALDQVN
Chain of Hypoxia-inducible factor 1-alpha (Mus musculus) (Q61221 whole entry): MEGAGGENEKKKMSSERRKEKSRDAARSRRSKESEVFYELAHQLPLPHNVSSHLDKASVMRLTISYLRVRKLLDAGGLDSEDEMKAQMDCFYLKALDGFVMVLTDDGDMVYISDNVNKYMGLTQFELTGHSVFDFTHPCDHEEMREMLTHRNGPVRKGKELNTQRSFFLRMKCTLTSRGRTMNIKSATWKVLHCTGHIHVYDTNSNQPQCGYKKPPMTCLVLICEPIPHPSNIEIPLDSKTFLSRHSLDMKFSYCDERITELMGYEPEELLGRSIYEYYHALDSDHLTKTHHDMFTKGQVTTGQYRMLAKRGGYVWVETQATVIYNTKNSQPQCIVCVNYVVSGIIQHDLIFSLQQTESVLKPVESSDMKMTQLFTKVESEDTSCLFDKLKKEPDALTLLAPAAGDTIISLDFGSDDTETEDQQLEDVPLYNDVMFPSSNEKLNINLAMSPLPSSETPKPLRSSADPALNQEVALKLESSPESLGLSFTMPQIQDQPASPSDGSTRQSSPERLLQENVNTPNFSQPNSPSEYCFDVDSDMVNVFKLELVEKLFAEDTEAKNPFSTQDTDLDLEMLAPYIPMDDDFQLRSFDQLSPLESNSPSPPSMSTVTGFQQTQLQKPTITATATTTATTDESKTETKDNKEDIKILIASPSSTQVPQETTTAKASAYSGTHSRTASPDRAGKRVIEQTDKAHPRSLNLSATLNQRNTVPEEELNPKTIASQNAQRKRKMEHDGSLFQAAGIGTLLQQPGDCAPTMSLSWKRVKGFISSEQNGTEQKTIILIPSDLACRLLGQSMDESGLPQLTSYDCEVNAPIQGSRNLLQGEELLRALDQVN

COC(=O)C(=O)NCC(=O)OCOC(=O)Oc1ccccc1
fold change (FC) [1]: < 1
fold change (FC) [2]: < 1

COC(=O)C(=O)NCC(=O)OC(C)OC(=O)OC(C)C (centres undefined)
fold change (FC) [1]: < 2
fold change (FC) [2]: 3

COC(=O)C(=O)NCC(=O)OCOC(C)=O
fold change (FC) [1]: < 1
fold change (FC) [2]: 2

COC(=O)C(=O)NCC(=O)OC(C)C
Activity [3]: Active
Activity [4]: Active
Activity [5]: Active; Compound Showed Higher Mrna Expression In Liver Compared To Brain
Activity [6]: Active
ED50 [7]: 2130 µM
Activity [8]: Active
Activity [9]: Active; Compound Showed Higher Mrna Expression In Liver Compared To Brain
ED50 [10]: 1140 µM
Activity [11]: Active
Activity [12]: inactive
Activity [13]: inactive
Activity [14]: Active
Activity [15]: Active; Less Protected Compared To Compound Treated Wild-Type Mouse
Activity [16]: Active
Activity [17]: inactive
Activity [18]: Active; Compound Showed Higher Mrna Expression In Liver Compared To Brain
Activity [19]: Active
Activity [20]: Active
Activity [21]: inactive
Activity [22]: Active
Activity [23]: Active
Activity [24]: Active
Activity [25]: inactive
Activity [26]: Active; Compound Showed Higher Mrna Expression In Liver Compared To Brain

COC(=O)C(=O)NCC(=O)OCOC(=O)OC(C)C
fold change (FC) [1]: < 1
fold change (FC) [2]: < 1

COC(=O)C(=O)NCC(=O)OC(C)OC(=O)C(C)(C)C (centres undefined)
fold change (FC) [1]: < 2
fold change (FC) [2]: 6

COC(=O)C(=O)NCC(=O)OCOC(=O)OC(C)(C)C
fold change (FC) [1]: < 1
fold change (FC) [2]: < 1

COC(=O)C(=O)NCC(=O)OC(C)OC(C)=O (centres undefined)
fold change (FC) [1]: < 2
fold change (FC) [2]: 6

COC(=O)C(=O)NCC(=O)OCOC(=O)C(C)C
fold change (FC) [1]: < 1
fold change (FC) [2]: < 1

COC(=O)C(=O)NCC(=O)OC(C)OC(=O)OC(C)(C)C (centres undefined)
fold change (FC) [1]: < 2
fold change (FC) [2]: 2

COC(=O)OCOC(=O)CNC(=O)C(=O)OC
fold change (FC) [1]: < 1
fold change (FC) [2]: < 1

CCC(=O)OC(C)OC(=O)CNC(=O)C(=O)OC (centres undefined)
fold change (FC) [1]: < 2
fold change (FC) [2]: 4

COC(=O)C(=O)NCC(=O)OCOC(=O)C(C)(C)C
fold change (FC) [1]: < 1
fold change (FC) [2]: 1

COC(=O)OC(C)OC(=O)CNC(=O)C(=O)OC (centres undefined)
fold change (FC) [1]: < 2
fold change (FC) [2]: 3

COC(=O)C(=O)NCC(=O)OC(C)OC(=O)C(C)C (centres undefined)
fold change (FC) [1]: < 2
fold change (FC) [2]: 7

CCOC(=O)OC(C)OC(=O)CNC(=O)C(=O)OC (centres undefined)
fold change (FC) [1]: < 2
fold change (FC) [2]: 3

COC(=O)C(=O)NCC(=O)OC(C)OC(=O)c1ccccc1 (centres undefined)
fold change (FC) [1]: < 2
fold change (FC) [2]: 5

COC(=O)C(=O)NCC(=O)OC(C)OC(=O)Oc1ccccc1 (centres undefined)
fold change (FC) [1]: < 2
fold change (FC) [2]: 5

CCC(=O)OCOC(=O)CNC(=O)C(=O)OC
fold change (FC) [1]: < 1
fold change (FC) [2]: 1

COC(=O)C(=O)NCC(=O)OCOC(=O)c1ccccc1
fold change (FC) [1]: < 2
fold change (FC) [2]: 3

CCOC(=O)OCOC(=O)CNC(=O)C(=O)OC
fold change (FC) [1]: < 1
fold change (FC) [2]: < 1
